In data set [1] the target is T1, rat nNOS (Rattus norvegicus, UniProt P29476).
T1 construct: made in house; host or cells: E. coli
Description: NOS enzyme assay (hemoglobin capture), nNOS. The conditions noted are these: for activity/potency for nNOS in words: purified enzyme assay; for pKi / Ki: rat nNOS; for pKi: Ki calculated from directly measured IC50 values, read-out: Ki nNOS; for n/e: ratio of Ki (eNOS) to Ki (nNOS); for n/e / n/i: Tables 1-3; for n/i: ratio of Ki (iNOS) to Ki (nNOS); for Selectivity n/e / Selectivity n/i / Ki: Table 4; for Ki: read-out: Ki (μM) nNOS. The data set is classed as biochemical.
Description: (§1) As above, the activities of the target compounds of Schemes 8-9 were determined against three NOS isozymes: rat nNOS, bovine eNOS and marine iNOS using known literature methods.
(§2) Enzyme Assays. […] The four enzyme isoforms were recombinant enzymes overexpressed (in E. coli) and isolated as reported. […] The formation of nitric oxide was measured using a well-known hemoglobin capture assay, as described previously in the literature. […] Ki=IC50/(1+[S]/Km) (1)

The target of data set [2] is T2, bovine eNOS (Bos taurus, UniProt P29473).
T2 construct: made in house; host or cells: E. coli
Description: NOS enzyme assay (hemoglobin capture), eNOS. It is filed as biochemical. The conditions noted are these: for pKi: Ki calculated from directly measured IC50 values, read-out: Ki eNOS; for Ki: Table 4, read-out: Ki (μM) eNOS.
Description: as §1, §2

Data set [3] concerns the target T3, murine macrophage iNOS (Mus musculus, UniProt P29477).
T3 construct: made in house; host or cells: E. coli
Description: NOS enzyme assay (hemoglobin capture), iNOS. The data set is classed as biochemical. As to conditions: for pKi: Ki calculated from directly measured IC50 values, read-out: Ki iNOS; for Ki: Table 4, read-out: Ki (μM) iNOS.
Description: as §1, §2

Data set [4] deals with T4, nNOS in 293T cells overexpressing nNOS (293T/nNOS cells) (Rattus norvegicus, UniProt P29476).
T4 construct: expressed in transfected cells; host or cells: 293T cells (293T/nNOS)
Description: Cell-based assay: inhibition of nNOS in 293T/nNOS cells, nitrite by Griess reagent. As to conditions: for activity in the cell-based assay in words: 293T/nNOS cells, FIG. 4; for membrane penetration ability / bioavailability based on cell-based assay: inferred from 293T/nNOS cell-based assay.
Description: After eight hours, the amount of nitrite in culture media was quantified with the Griess reagent. Each data point is an average of two independent experiments.

pKi: −log10 of the molar value. Entries after “also recorded” stand apart in the source; their conditions may differ. Like-named read-outs stand apart in the source and are kept apart here. A value given as a limit tells only on which side of the number the result lay.

On to `Cc1cc(C)nc(NCc2ccc3cc(CNc4cc(C)cc(C)n4)ccc3c2)c1` [3a, N,N′-(Naphthalene-2,6-diylbis(methylene))bis(4,6-dimethylpyridin-2-amine)], for which, in data set [1], the “activity/potency for nNOS in words” value is recorded as “poor activity” and the pKi is less than 4.94.

As for `Cc1cc(N)nc(CCc2ccc3cc(CCc4cc(C)cc(N)n4)ccc3c2)c1` [3b, 6,6′-(2,2′-(Naphthalene-2,6-diyl)bis(ethane-2,1-diyl))bis(4-methylpyridin-2-amine)], the pKi in data set [2] is 5.76. The negative-log Ki (pKi) in data set [3] was 5.64. Also, in data set [1], the “selectivity for nNOS over eNOS” value came out at 7 fold, the “selectivity for nNOS over iNOS” value came to 9 fold, the pKi is 6.62 and the n/e is given as 7.22. Also, the n/i in data set [1] turned out to be 9.42.

Regarding `Cc1cc(N)nc(CCc2ccc3ccc(CCc4cc(C)cc(N)n4)cc3c2)c1` [3c, 6,6′-(2,2′-(Naphthalene-2,7-diyl)bis(ethane-2,1-diyl))bis(4-methylpyridin-2-amine)], the negative logarithm of the Ki (pKi) was 5.82 in data set [2], 5.69 in data set [3] and 6.99 in data set [1]. Moreover, in data set [1], the n/e is on record as 14.9. The n/i in data set [1] came to 20.1.

With `Cc1cc(N)nc(CCc2ccc3ccc(CCc4cc(C)nc(N)c4)cc3c2)c1` [3d, 4-(2-(7-(2-(6-Amino-4-methylpyridin-2-yl)ethyl)naphthalen-2-yl)ethyl)-6-methylpyridin-2-amine], in data set [1], the “activity/potency for nNOS in words” value is “little activity” and the negative-log Ki (pKi) is less than 6.30.

As to `Cc1cc(N)nc(CCc2ccc(CCc3cc(C)cc(N)n3)cc2)c1` [3e], the negative logarithm of the Ki (pKi) in data set [2] was 5.62. In data set [3], the pKi was 5.62. In data set [1], the “selectivity for nNOS over eNOS” value is reported as 25 fold, the pKi is 7.01, the n/e was determined as 24.6 and the n/i was 24.8.

`Cc1cc(N)nc(CCc2ccc(CCc3cc(C)nc(N)c3)cc2)c1` [3f, 4-(4-(2-(6-Amino-4-methylpyridin-2-yl)ethyl)phenethyl)-6-methylpyridin-2-amine]: in data set [1], the “activity/potency for nNOS in words” value was “inactive” and the pKi is 6.78.

For `Cc1cc(N)nc(CCc2cccc(CCc3cc(C)cc(N)n3)c2)c1` [3g, 6,6′-(2,2′-(1,3-Phenylene)bis(ethane-2,1-diyl))bis(4-methylpyridin-2-amine)], in data set [4], the “activity in the cell-based assay in words” value is “almost no activity”.

On to `Cc1cc(N)nc(CCc2cccc(CCc3cc(C)nc(N)c3)c2)c1` [3h, 4-(3-(2-(6-Amino-4-methylpyridin-2-yl)ethyl)phenethyl)-6-methylpyridin-2-amine], for which the pKi in data set [2] is 5.38. Moreover, the pKi in data set [3] is 5.56. In addition, in data set [1], the “selectivity for nNOS over eNOS” value is on record as 111 fold, the “selectivity for nNOS over iNOS” value came to 71.8 fold, the “activity/potency for nNOS in words” value is recorded as “highly potent” and the pKi is 7.42. Also, in data set [1], the n/e came to 111 and the n/i was 71.8. Also, the “activity in the cell-based assay in words” value in data set [4] is reported as “almost no activity”.

As for `Cc1cc(CCc2cccc(CCc3cc(C)nc(N)c3)c2)cc(N)n1` [3i, 4,4′-(2,2′-(1,3-Phenylene)bis(ethane-2,1-diyl))bis(6-methylpyridin-2-amine)], in data set [1], the “activity/potency for nNOS in words” value was “poor activity” and the pKi is 5.65.

For `Cc1cc(N)nc(CCc2cncc(CCc3cc(C)cc(N)n3)c2)c1` [3j, 6,6′-(2,2′-(Pyridine-3,5-diyl)bis(ethane-2,1-diyl))bis(4-methylpyridin-2-amine)], the “membrane penetration ability / bioavailability based on cell-based assay” value in data set [4] was “very good membrane penetration ability; also recorded: improved bioavailability”.

Turning to `Cc1cc(N)nc(CCc2cncc(CCc3cc(C)nc(N)c3)c2)c1` [3k, 4-(2-(5-(2-(6-Amino-4-methylpyridin-2-yl)ethyl)pyridin-3-yl)ethyl)-6-methylpyridin-2-amine], the pKi in data set [2] is 4.79. The pKi in data set [3] was 5.72. Besides, in data set [1], the “selectivity for nNOS over eNOS” value was determined as 156 fold, the “activity/potency for nNOS in words” value was “highly potent”, the negative logarithm of the Ki (pKi) was 6.99 and the n/e is 156. Also, the n/i in data set [1] stood at 19. In data set [4], the “membrane penetration ability / bioavailability based on cell-based assay” value is given as “very good membrane penetration ability”.

Take `Cc1cc(N)nc(CCc2cc(C#N)cc(CCc3cc(C)cc(N)n3)c2)c1` [HH006, 3,5-bis(2-(6-amino-4-methylpyridin-2-yl)ethyl)benzonitrile]: the Ki in data set [2] is 26.4 µM. Moreover, the Ki in data set [3] was determined as 13.4 µM. Besides, in data set [1], the Selectivity n/e stood at 472; the Selectivity n/i is given as 239; the “activity/potency for nNOS in words” value is “good potency and selectivity”; the Ki came to 0.056 µM.

`Cc1cc(N)nc(CCc2cc(CCc3cc(C)cc(N)n3)cc(N3CCNCC3)c2)c1` [HH025]: in data set [2], the Ki came out at 63.2 µM. The Ki in data set [3] was found to be 36.7 µM. Also, in data set [1], the Selectivity n/e turned out to be 30, the Selectivity n/i is recorded as 17 and the Ki was 2.1 µM.

For the compound `Cc1cc(N)nc(CCc2cc(CCCN)cc(CCc3cc(C)cc(N)n3)c2)c1` [HH026], the Ki in data set [2] was 12.1 µM. In addition, in data set [3], the Ki worked out at 32.5 µM. In addition, in data set [1], the Selectivity n/e was 22, the Selectivity n/i turned out to be 60 and the Ki turned out to be 0.54 µM.

For the compound `Cc1cc(N)nc(CCc2cc(CCc3cc(C)cc(N)n3)cc(N3CCN(C)CC3)c2)c1` [HH027], the Ki in data set [2] turned out to be 97.4 µM; in data set [3], 138 µM; in data set [1] it was 5.75 µM. In data set [1], this compound gave a Selectivity n/e of 17. The same compound displayed a Selectivity n/i in data set [1] of 24.

With `Cc1cc(N)nc(CCc2cc(CN)cc(CCc3cc(C)cc(N)n3)c2)c1` [HH030, 6,6′-((5-(aminomethyl)-1,3-phenylene)bis(ethane-2,1-diyl))bis(4-methylpyridin-2-amine)], the Ki in data set [2] turned out to be 11.7 µM; in data set [3], 6.31 µM; in data set [1], 0.053 µM. In addition, the Selectivity n/e in data set [1] is 221. The compound further registered a Selectivity n/i in data set [1] of 119.

Regarding `Cc1cc(N)nc(CCc2ccc(CCCN)c(CCc3cc(C)cc(N)n3)c2)c1` [HH032], the inhibition constant Ki in data set [2] was determined as 33.4 µM. Moreover, the Ki in data set [3] came out at 21.9 µM. In data set [1], the Selectivity n/e is on record as 303, the Selectivity n/i was found to be 199 and the Ki stood at 0.11 µM.

The pKi is −log10 of the Ki, conventionally taken in molar units. A word on the Ki: it is the dissociation constant of the complex between target and ligand, obtained from inhibition or displacement.

The values are drawn from patent US8932842B2, “Aminopyridine dimer compounds, compositions and related methods for neuronal nitric oxide synthase inhibition” (Northwestern University, priority 2009, dated 2015).
